How the values were obtained:
[1] = test system: T1, poplar AOR (EC 1.3.1.74), alkenal/one oxidoreductase; experiment: NADPH consumption at A340 nm, MVK varied, leaf protein extract; type: biochemical, Populus x canescens; details: co-substrate NADPH; apparent in vitro, crude leaf extract; 50 mM Tris/HCl, 20 mM MgCl2, 5% glycerol, 2 mM DTT; read-out: Michaelis-Menten constant
T1 construct: gene AORchl; native enzyme in desalted (Sephadex G-25 PD-10) crude leaf protein extract, not purified; AORchl predominantly expressed in leaf, AORcyt-II in stem; active isoenzyme not determined

[2] = test system: T1, poplar AOR (EC 1.3.1.74), alkenal/one oxidoreductase; experiment: NADPH consumption at A340 nm, NADPH varied, leaf protein extract; type: biochemical, Populus x canescens; details: co-substrate MVK; apparent in vitro, crude leaf extract; 50 mM Tris/HCl, 20 mM MgCl2, 5% glycerol, 2 mM DTT; read-out: Michaelis-Menten constant

Structure (SMILES) | Km [1] [mM] | Km [2] [mM]
C=CC(C)=O [MVK] | 14.1 | 
NC(=O)C1=CN([C@@H]2O[C@H](COP(=O)(O)OP(=O)(O)OC[C@H]3O[C@@H](n4cnc5c(N)ncnc54)[C@H](OP(=O)(O)O)[C@@H]3O)[C@@H](O)[C@H]2O)C=CC1 [NADPH] |  | 0.049
